We go through six molecules from PubChem BioAssay (NCI).

As usually defined, the TGI is the concentration at which net growth stops. Low values mean more potent growth arrest, high ones less potent growth arrest. In general, GI50 refers to the concentration giving 50% growth inhibition.

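The compound was tested at five concentrations on cells cultured in 96-well plates, with a 48-hour exposure period. Here, GI50 denotes the concentration required for 50% inhibition of growth. Definition used: TGI = concentration required for complete inhibition of growth.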

Test systems include SR leukemia; RPMI-8226 leukemia; SK-OV-3 ovarian; CAKI-1 renal; NCI/ADR-RES ovarian; HOP-62 NSCLC; 786-0 renal; SF-539 CNS; SK-MEL-5 melanoma; OVCAR-5 ovarian.
Holding throughout (assay): DTP human tumour cell line panel, 48 h

In the case of `CC1=C(C(=O)Nc2ccccc2)C(c2ccc(N(C)C)cc2)C(C(=O)Nc2ccccc2)=C(C)N1`, the TGI was over 92.8 µM with SR leukemia; 72.9 µM in the test with RPMI-8226 leukemia; over 100 µM in the test on SK-OV-3 ovarian; over 100 µM with CAKI-1 renal; over 100 µM in the test on NCI/ADR-RES ovarian; 24.2 µM in the test on HOP-62 NSCLC. Also, the TGI is over 100 µM in the test on 786-0 renal, over 100 µM in the test on SF-539 CNS, 7.98 µM in the test on SK-MEL-5 melanoma and 99 µM in the test with OVCAR-5 ovarian.
Take `OC1(c2ccc(Cl)c(C(F)(F)F)c2)CCN(CCCC(c2ccc(F)cc2)c2ccc(F)cc2)CC1`: the GI50 is 0.831 µM with SR leukemia; 1.1 µM in the test with RPMI-8226 leukemia; 1.31 µM with SK-OV-3 ovarian; 0.922 µM in the test with CAKI-1 renal; 0.863 µM in the test with NCI/ADR-RES ovarian; 0.945 µM in the test on HOP-62 NSCLC. For the same molecule, the GI50 in the test with 786-0 renal was 0.832 µM; in the test with SF-539 CNS it was 0.943 µM; in the test on SK-MEL-5 melanoma, 0.797 µM; with OVCAR-5 ovarian, 0.868 µM. Further, the TGI in the test with SR leukemia was found to be 2 µM; with RPMI-8226 leukemia it was 2.67 µM; in the test with SK-OV-3 ovarian it was 3.17 µM; in the test on CAKI-1 renal, 1.9 µM; in the test on NCI/ADR-RES ovarian, 1.77 µM; in the test with HOP-62 NSCLC, 1.7 µM. The TGI came to 1.52 µM in the test with 786-0 renal, 1.69 µM in the test on SF-539 CNS, 1.47 µM with SK-MEL-5 melanoma and 1.77 µM with OVCAR-5 ovarian.
On to `COc1cc2c(cc1Nc1nc(N3CCc4ccccc43)c3cc[nH]c3n1)N(C(=O)CN(C)C)CC2`, for which the GI50 is 0.517 µM in the test with SR leukemia; 1.55 µM in the test with RPMI-8226 leukemia; 20.5 µM in the test on SK-OV-3 ovarian; 11 µM in the test with CAKI-1 renal; 0.731 µM in the test with NCI/ADR-RES ovarian; 4.62 µM in the test on HOP-62 NSCLC. The GI50 in the test with 786-0 renal was 3 µM; in the test with SF-539 CNS, 4.88 µM; with SK-MEL-5 melanoma, 4.26 µM; with OVCAR-5 ovarian, 1.22 µM. Besides, the TGI is 1.28 µM with SR leukemia; 3.98 µM in the test with RPMI-8226 leukemia; 25 µM in the test on SK-OV-3 ovarian; 16.3 µM in the test with CAKI-1 renal; 2.81 µM in the test with NCI/ADR-RES ovarian; 9.46 µM in the test with HOP-62 NSCLC. The TGI with 786-0 renal came to 8.99 µM; with SF-539 CNS, 10.8 µM; with SK-MEL-5 melanoma, 11 µM; in the test on OVCAR-5 ovarian, 5.63 µM.
Regarding `COc1ccc2c(c1)C(=O)c1c-2c(Nc2ccccc2OC)nc2ccccc12`, the GI50 in the test on SR leukemia, with RPMI-8226 leukemia, with SK-OV-3 ovarian, in the test with CAKI-1 renal, in the test with NCI/ADR-RES ovarian and in the test with HOP-62 NSCLC was over 100 µM in each case. For the same molecule, the GI50 in the test with 786-0 renal, with SF-539 CNS, with SK-MEL-5 melanoma and with OVCAR-5 ovarian was over 100 µM throughout. The TGI with SR leukemia, in the test with RPMI-8226 leukemia, in the test on SK-OV-3 ovarian, with CAKI-1 renal, in the test on NCI/ADR-RES ovarian and in the test with HOP-62 NSCLC was over 100 µM in each case. Also, the TGI in the test on 786-0 renal, with SF-539 CNS, with SK-MEL-5 melanoma and with OVCAR-5 ovarian was over 100 µM each time.
Turning to `Nc1nc2c(c3cnccc13)C(c1ccc(Cl)c(Cl)c1)Cc1cnccc1-2` (stereo not given), the GI50 with SR leukemia was 0.384 µM; in the test on RPMI-8226 leukemia, 0.788 µM; with SK-OV-3 ovarian it was 0.463 µM; with CAKI-1 renal it was 0.658 µM; in the test on NCI/ADR-RES ovarian, 0.43 µM; in the test on HOP-62 NSCLC it was 0.583 µM. Also, the GI50 was 0.565 µM in the test on 786-0 renal, 0.486 µM with SF-539 CNS, 0.58 µM in the test with SK-MEL-5 melanoma and 2.52 µM with OVCAR-5 ovarian. The TGI was over 100 µM with SR leukemia; 12.9 µM in the test on RPMI-8226 leukemia; 10.8 µM in the test on SK-OV-3 ovarian; 13.4 µM in the test on CAKI-1 renal; 7.69 µM with NCI/ADR-RES ovarian; 4.99 µM in the test on HOP-62 NSCLC. For the same molecule, the TGI was determined as 3.9 µM with 786-0 renal, 4.29 µM in the test with SF-539 CNS, 3.83 µM with SK-MEL-5 melanoma and 17 µM in the test on OVCAR-5 ovarian.
As for `Nc1ncnc2c1N=C(c1ccc3c(c1)OCO3)CC(c1ccc(Cl)cc1)N2` (stereo not given), the GI50 in the test with SR leukemia was over 100 µM; with RPMI-8226 leukemia, 1.5 µM; in the test with SK-OV-3 ovarian, 92.6 µM; in the test on CAKI-1 renal, 22.7 µM; in the test with NCI/ADR-RES ovarian, 5.35 µM; in the test on HOP-62 NSCLC it was 16.6 µM. Moreover, the GI50 was 21.7 µM in the test on 786-0 renal, 26.2 µM in the test on SF-539 CNS, 85.1 µM with SK-MEL-5 melanoma and 18.3 µM with OVCAR-5 ovarian. In addition, the TGI in the test with SR leukemia was over 100 µM; in the test with RPMI-8226 leukemia it was 8.33 µM; in the test with SK-OV-3 ovarian, over 100 µM; with CAKI-1 renal it was 86.3 µM; in the test with NCI/ADR-RES ovarian, 41.2 µM; in the test with HOP-62 NSCLC, 42.6 µM. Besides, the TGI with 786-0 renal was over 100 µM; in the test with SF-539 CNS, over 100 µM; in the test with SK-MEL-5 melanoma, over 100 µM; in the test with OVCAR-5 ovarian, 90.7 µM.
